Test results: article PMC4600319 (Malaria Journal, 2015)
Several values for one entry are separate records, joined by “and”; a condition that tells them apart may be missing. Identical values can stand only once. Like-named read-outs stand apart in the source and are kept apart here. Values belong to the compound of their own block, whether it stands above or below them.

Experiments:
[1] = Open-label, three-way, sequential, cross-over pharmacokinetic interaction study, plasma, non-compartmental analysis; type: in vivo, human (healthy Thai adults); details: for Tmax / AUC(0-t) / Cmax / half-life / AUC(0-inf) / AUC0–12h / Vd/F: plasma; for Tmax / AUC(0-t) / Cmax / half-life / AUC(0-inf) / AUC0–12h / Vd/F / CL/F: median (95 % CI); for inter-individual variability in AUC0−24h / extrapolated AUC from the last blood sampling time to infinity (AUCt−∞) / inter-individual variability of plasma concentrations: in vivo; for plasma concentration 1 h post-dose on Day 3: median; for half-life: read-out: t1/2z (converted); for t1/2z GMR (90 % CI): geometric mean ratio; for Vd/F: read-out: Vz/F
Procedure: This was an open-label, three-way, sequential, cross-over, pharmacokinetic study in healthy adult volunteers. […] Written informed consent for study participation was obtained from each subject before study. […] Consenting adults were screened for eligibility and a physical examination, electrocardiogram (ECG), and laboratory safety tests (haematology, biochemistry, urinalysis, and pregnancy status) were performed. Figure 1 summarizes the study design. The pharmacokinetic sampling was performed sequentially on three occasions. […] Ltd., China). Mefloquine doses were given as three tablets on Day 1 and two tablets on Day 2 (250 mg mefloquine per tablet, manufactured by Atlantic Pharmaceutical Ltd., China). There was a 2-months wash-out period between Period 1 and Period 2. Period 2: subjects received oral doses of LPV/r (400/100 mg), twice daily, for 14 days (27 doses). There was no washout between Period 2 and Period 3. […] Immediately after collection, all blood samples were centrifuged (1200×g, 10 min) and the plasma samples were stored at -80 °C until analysis. […] University. […] An Agilent 1260 LC system (Agilent Technologies, CA, USA) coupled with an API 5000 triple quadrupole mass spectrometer (Applied Biosystems/MDS SCIEX, Foster City, USA), with a TurboVTM ionization source (TIS) interface operated in the positive ion mode, was used for the multiple reaction monitoring LC-MS/MS analysis. […] Nitrogen gas was supplied from an AB-3G (Peak Scientific, Inchinnan, UK). […] Chromatographic separation was performed using an […] XDB C18 column (5 μm, 4.6 mm × 150 mm; Thermo Fisher Scientific, MA, USA) protected with an Eclipse XDB-C8 guard column (Thermo Electron Corporation, MA, USA). The gradient mobile phase consisted of a mixture of 10 mM ammonium acetate with 0.1 % glacial acetic acid and acetonitrile running at a flow rate of 0.7 mL/min. Total run time was 12 min. […] Measurement of plasma concentrations of mefloquine was performed using high performance liquid chromatography (HPLC) according to the method of Karbwang et al. with modifications. Chromatographic separation was performed on a Hypersil ODS column (5 μm, 4.6 mm × 250 mm; Thermo Fisher Scientific, MA, USA) protected with an Eclipse XDB-C8 guard column (Thermo Electron Corporation, MA, USA). […] The UV detector was set at the wavelength of 220 nm. […] This laboratory participates in the NIAID Clinical Pharmacology Quality Assurance Programme Proficiency Testing. Pharmacokinetic parameters were determined using a non-compartmental analysis using WinNonLin software (version 6.3, […], USA). […] The Cmax (maximum concentration); tmax (time of maximum concentration) were determined by direct inspection of the plasma concentration-time data. […] The extrapolated AUC from the last sampling time to infinity was estimated from Ct/elimination rate constant (lz). lz was calculated from at least five concentration-time points of elimination phase. Apparent oral clearance (CL/F) was calculated as dose/AUC0-∞. Volume of distribution (Vz/F) was calculated as CL/F/lz, and the terminal half-life (t1/2z) was calculated as 0.693/lz. […] Statistical analysis of the data was performed using SPSS version 16.0 (Gorichem, The Netherlands). Pharmacokinetic parameters are presented as median and 95 % confidence intervals (95 % CI). […] Comparison of the frequency of subjects with adverse events between the two groups was performed using a Chi-square test. Statistical significance level was set at a = 0.05 for all tests.

[2] = previous report, healthy Thai volunteers; cited from earlier work
[3] = both sexes, human, oral, 3-day artesunate-mefloquine with LPV/r 400/100 mg twice a day (Period 3), read-out: tmax
[4] = both sexes, human, oral, 3-day artesunate-mefloquine alone (Period 1), read-out: AUC0–24h
[5] = both sexes, human, oral, 3-day artesunate-mefloquine with LPV/r (Period 3), read-out: AUC0–24h
[6] = both sexes, human, oral, 3-day artesunate-mefloquine with LPV/r (Period 3), read-out: Cmax
[7] = both sexes, human, po, 3-day artesunate-mefloquine alone (Period 1), oral, read-out: Cmax
[8] = both sexes, human, 3-day artesunate-mefloquine alone (Period 1), oral, read-out: tmax
[9] = in the presence of LPV/r vs alone
[10] = both sexes, human, oral, 3-day artesunate-mefloquine alone (Period 1)
[11] = both sexes, human, oral, 3-day artesunate-mefloquine with LPV/r (Period 3)
[12] = in the presence of steady-state LPV/r vs alone
[13] = LPV/r 400/100 mg twice daily alone (Period 2)
[14] = LPV/r with 3-day artesunate-mefloquine (Period 3)
[15] = both sexes, human, oral, LPV/r 400/100 mg twice daily alone (Period 2), read-out: Cmax
[16] = both sexes, human, oral, LPV/r 400/100 mg twice daily alone (Period 2)
[17] = both sexes, human, oral, LPV/r with 3-day artesunate-mefloquine (Period 3), read-out: AUC0–12h
[18] = both sexes, human, oral, LPV/r with 3-day artesunate-mefloquine (Period 3)
[19] = in the presence of artesunate-mefloquine vs LPV/r alone
[20] = with artesunate-mefloquine vs LPV/r alone
[21] = 750 and 500 mg 24 h apart vs previous study in healthy Thai subjects, 750 and 500 mg 6 h apart (ref 47, 48)

CL/F ([1]; 3-day artesunate-mefloquine alone (Period 1)): 1.08 (0.78, 1.37) L/h
CL/F ([1]; 3-day artesunate-mefloquine with LPV/r (Period 3)): 1.67 (1.03, 2.30) L/h
lower CL/F relative to previous study [1, 21]: 33.4%
smaller Vz/F relative to previous study [1, 21]: 40%
Tmax [1, 3]: 33 h
AUC(0-t) ([1]; both sexes, human, oral, 3-day artesunate-mefloquine alone (Period 1), read-out: AUC0–48h): 952 µg·h/mL
half-life [1, 10]: 344 h
AUC(0-inf) [1, 10]: 1160 µg·h/mL
Vd/F [1, 10]: 9.24 L/kg
AUC(0-t) ([1]; both sexes, human, oral, 3-day artesunate-mefloquine with LPV/r (Period 3), read-out: AUC0–48h): 678 µg·h/mL
Cmax [1, 6]: 2340 ng/mL
half-life [1, 11]: 336 h
AUC(0-inf) [1, 11]: 751 µg·h/mL
Vd/F [1, 11]: 12.8 L/kg
Cmax [1, 7]: 2900 ng/mL
Tmax [1, 8]: 33 h
decrease in AUC0−48h [1, 9]: 28.7%
decrease in AUC0−168h [1, 9]: 37.1%
decrease in AUC0−∞ [1, 9]: 35.2%
decrease in Cmax [1, 9]: 19.3%
increase in CL/F [1, 9]: 54.6%
increase in Vz/F [1, 9]: 37.9%
reduction in Cmax and systemic exposure [1, 9]: 19–37%
extrapolated AUC from the last blood sampling time to infinity (AUCt−∞) [1]: less than 10%
inter-individual variability of plasma concentrations [1]: 34.2 to 96.9%
t1/2z GMR (90 % CI) ([1]; with LPV/r vs alone): 1.14 (0.90, 1.45)
Compound: OC(c1cc(C(F)(F)F)nc2c(C(F)(F)F)cccc12)C1CCCCN1 (centres unmarked) [Mefloquine, mefloquine]
90 % CI of the GMR of AUC0−168h vs bioequivalent range of 0.8-1.25 ([1]; combination vs alone): outside the acceptable bioequivalent range
90 % CI of the GMR of AUC0−∞ vs bioequivalent range of 0.8-1.25 ([1]; combination vs alone): outside the acceptable bioequivalent range
90 % CI of the GMR of Cmax vs bioequivalent range of 0.8-1.25 ([1]; combination vs alone): outside the acceptable bioequivalent range

AUC0–12h [1, 13]: 8.11 (5.71, 10.50) μg h/mL
Tmax [1, 13]: 4.0 (3.1, 4.8) h
CL/F [1, 13]: 9.27 (4.74, 13.80) L/h
Tmax [1, 14]: 4.0 (3.1, 4.8) h
CL/F [1, 14]: 21.24 (8.71, 33.77) L/h
Cmax [1, 15]: 1530 ng/mL
AUC(0-inf) [1, 16]: 10.8 µg·h/mL
Vd/F [1, 16]: 0.97 L/kg
half-life [1, 16]: 4.3 h
AUC(0-t) [1, 17]: 4.49 µg·h/mL
Cmax ([1]; both sexes, human, oral, LPV/r with 3-day artesunate-mefloquine (Period 3), read-out: Cmax): 680 ng/mL
AUC(0-inf) [1, 18]: 4.71 µg·h/mL
Vd/F [1, 18]: 1.75 L/kg
half-life [1, 18]: 3.7 h
decrease in AUC0–12h [1, 19]: 44.6%
decrease in AUC0−∞ [1, 19]: 56.3%
decrease in Cmax [1, 19]: 54.9%
increase in CL/F [1, 19]: 129.1%
increase in Vz/F [1, 19]: 80.4%
extrapolated AUC from the last blood sampling time to infinity (AUCt−∞) [1]: less than 5%
inter-individual variability of plasma concentrations [1]: 21.3 to 62.9%
t1/2z GMR (90 % CI) [1, 20]: 0.87 (0.68, 1.11)
Compound: CC(C)c1nc(CN(C)C(=O)N[C@H](C(=O)N[C@@H](Cc2ccccc2)C[C@H](O)[C@H](Cc2ccccc2)NC(=O)OCc2cncs2)C(C)C)cs1 [Ritonavir, ritonavir]
90 % CI of the GMR of AUC0−12h vs bioequivalent range of 0.8-1.25 ([1]; combination vs alone): outside the acceptable bioequivalent range
90 % CI of the GMR of AUC0−∞ vs bioequivalent range of 0.8-1.25 ([1]; combination vs alone): outside the acceptable bioequivalent range
90 % CI of the GMR of Cmax vs bioequivalent range of 0.8-1.25 ([1]; combination vs alone): outside the acceptable bioequivalent range

Continued, compound first:

Compound: C[C@H]1[C@H](OC(=O)CCC(=O)O)O[C@@H]2O[C@@]3(C)CC[C@H]4[C@H](C)CC[C@@H]1[C@@]24OO3 [Artesunate, artesunate]
Tmax [1, 3]: 1 h
AUC(0-t) [1, 4]: 0.2 µg·h/mL
AUC(0-t) [1, 5]: 0.24 µg·h/mL
Cmax [1, 6]: 140 ng/mL
Cmax [1, 7]: 110 ng/mL
Tmax [1, 8]: 1 h
90 % CI of the GMR of AUC0−24h vs bioequivalent range of 0.8-1.25 ([1]; combination vs alone): outside the acceptable bioequivalent range
increase in Cmax and systemic exposure [1, 9]: 45–80%
inter-individual variability in AUC0−24h [1]: 54.4%

Compound: C[C@H]1[C@@H](O)O[C@@H]2O[C@@]3(C)CC[C@H]4[C@H](C)CC[C@@H]1[C@@]24OO3 [Dihydroartemisinin, dihydroartemisinin]
reduction in the AUC ([1]; LPV/r co-administration): 50%
plasma concentration 1 h post-dose on Day 3 ([1]; artesunate given with LPV/r): 310 ng/mL
plasma concentration 1 h post-dose on Day 3 ([1]; artesunate-mefloquine without LPV/r): 580 ng/mL
Tmax [1, 3]: 2 h
AUC(0-t) [1, 4]: 2.37 µg·h/mL
half-life [1, 10]: 4.02 h
AUC(0-inf) [1, 10]: 2.68 µg·h/mL
AUC(0-t) [1, 5]: 0.99 µg·h/mL
Cmax [1, 6]: 310 ng/mL
half-life [1, 11]: 9.99 h
AUC(0-inf) [1, 11]: 1.37 µg·h/mL
Cmax [1, 7]: 580 ng/mL
Tmax [1, 8]: 2 h
90 % CI of the GMR of AUC0−24h vs bioequivalent range of 0.8-1.25 ([1]; combination vs alone): outside the acceptable bioequivalent range
90 % CI of the GMR of Cmax vs bioequivalent range of 0.8-1.25 ([1]; combination vs alone): outside the acceptable bioequivalent range
decrease in AUC0-24 h (as nmol h/mL) relative to the increase in artesunate AUC ([1]; in the presence of LPV/r): about 180%
decrease in AUC0−∞ [1, 9]: ~48.8%
decrease in Cmax [1, 9]: about 46.6%
decrease in AUC0−24h [1, 12]: ~58.2%
increase in t1/2z [1, 12]: 148.5%
extrapolated AUC from the last blood sampling time to infinity (AUCt−∞) [1]: less than 5%
inter-individual variability in AUC0−24h [1]: 80.2%
t1/2z GMR (90 % CI) ([1]; with LPV/r vs alone): 1.89 (1.00, 3.58)
t1/2z [2]: 0.74 h

Compound: Cc1cccc(C)c1OCC(=O)N[C@@H](Cc1ccccc1)[C@@H](O)C[C@H](Cc1ccccc1)NC(=O)[C@H](C(C)C)N1CCCNC1=O [Lopinavir, lopinavir]
AUC0–12h [1, 13]: 103.32 (82.62, 124.01) μg h/mL
Tmax [1, 13]: 4.0 (3.1, 4.8) h
Cmax [1, 14]: 9.62 (7.99, 11.24) μg/mL
Cmax [1, 15]: 12400 ng/mL
AUC(0-inf) [1, 16]: 229 µg·h/mL
Vd/F [1, 16]: 0.45 L/kg
half-life [1, 16]: 9.8 h
AUC(0-t) [1, 17]: 90.5 µg·h/mL
AUC(0-inf) [1, 18]: 130 µg·h/mL
Vd/F [1, 18]: 0.53 L/kg
half-life [1, 18]: 6.6 h
90 % CI of the GMR of Cmax vs bioequivalent range of 0.8-1.25 ([1]; combination vs alone): outside the acceptable bioequivalent range
decrease in Cmax [1, 19]: 22% and 22.1%
increase in CL/F [1, 19]: 75.4%
extrapolated AUC from the last blood sampling time to infinity (AUCt−∞) [1]: less than 5%
inter-individual variability of plasma concentrations [1]: 50.6 to 127.6%
t1/2z GMR (90 % CI) [1, 20]: 0.71 (0.45, 1.13)
